Measured values taken from ChEMBL document CHEMBL1144755, “Co-existence of alpha-glucosidase-inhibitory and liver X receptor-regulatory activities and their separation by structural development” (Bioorg Med Chem, 2008).
Calls of active or inactive are those of the source. No cut-off for these calls is given here.

Tests used:
[1] = biological target: T1, Oxysterols receptor LXR-alpha (Homo sapiens, UniProt Q13133); experiment: Antagonist activity at human recombinant LXRalpha expressed in HEK293 cells by luciferase reporter gene assay; assay type: functional, cell-based
T1 sequence (Q13133 whole entry): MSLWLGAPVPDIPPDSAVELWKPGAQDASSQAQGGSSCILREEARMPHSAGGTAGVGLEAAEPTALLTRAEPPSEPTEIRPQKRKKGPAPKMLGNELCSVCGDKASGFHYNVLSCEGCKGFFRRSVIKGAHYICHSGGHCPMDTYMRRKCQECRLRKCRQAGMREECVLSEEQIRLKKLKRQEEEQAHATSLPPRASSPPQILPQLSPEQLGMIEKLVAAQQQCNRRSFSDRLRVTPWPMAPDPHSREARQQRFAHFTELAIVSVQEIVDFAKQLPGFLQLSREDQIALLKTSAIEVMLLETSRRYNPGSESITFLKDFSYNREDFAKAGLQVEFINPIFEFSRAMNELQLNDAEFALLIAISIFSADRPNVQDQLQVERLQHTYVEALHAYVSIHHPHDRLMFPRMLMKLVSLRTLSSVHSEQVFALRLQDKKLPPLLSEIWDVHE

[2] = Inhibition of Saccharomyces sp. alpha-glucosidase
[3] = biological target: T2, Oxysterols receptor LXR-beta (Homo sapiens, UniProt P55055); experiment: Antagonist activity at human recombinant LXRbeta expressed in HEK293 cells by luciferase reporter gene assay; assay type: functional, cell-based
T2 sequence (P55055 whole entry): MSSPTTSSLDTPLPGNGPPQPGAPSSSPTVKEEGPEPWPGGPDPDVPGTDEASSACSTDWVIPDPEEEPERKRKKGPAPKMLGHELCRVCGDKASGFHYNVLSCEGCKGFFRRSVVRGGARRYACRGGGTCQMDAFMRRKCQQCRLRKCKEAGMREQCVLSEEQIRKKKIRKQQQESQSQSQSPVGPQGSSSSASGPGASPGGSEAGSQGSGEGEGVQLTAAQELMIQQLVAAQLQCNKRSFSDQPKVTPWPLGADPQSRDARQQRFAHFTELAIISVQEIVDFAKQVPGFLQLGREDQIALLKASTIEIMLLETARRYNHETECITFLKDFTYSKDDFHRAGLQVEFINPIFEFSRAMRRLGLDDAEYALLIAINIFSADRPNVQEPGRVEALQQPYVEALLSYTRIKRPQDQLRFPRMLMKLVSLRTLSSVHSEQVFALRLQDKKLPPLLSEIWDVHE

[4] = Agonist activity at LXR; assay type: functional

Row | Compound | IC50 [1] [µM] | IC50 [2] [µM] | IC50 [3] [µM] | Activity [4]
1 | COc1ccc2c(c1)CCc1ccc(cc1)Oc1cc(ccc1OC)CCc1ccc-2c(OC)c1 | 2 | 49 | 14 | inactive
2 | COc1cc2ccc1-c1ccccc1CCc1ccc(cc1)Oc1cccc(c1)CC2 | 2.5 | 67 | 11 | inactive
3 | COc1ccc2c(c1)CCc1ccc(cc1)Oc1cc(ccc1OC)CCc1ccc-2cc1 | 3.6 | 40 | 26 | inactive
4 | COc1ccc2c(c1)CCc1ccc(cc1)Oc1cccc(c1)CCc1ccc-2c(OC)c1 | 25 | > 30 | 46 | inactive
5 | OC[C@H]1NC[C@H](O)[C@@H](O)[C@@H]1O [DUVOGLUSTAT] | > 100 | 250 | > 100 | inactive
6 | COc1ccc2cc1Oc1ccc(cc1)CCc1ccccc1-c1ccc(cc1)CC2 | 7.6 | > 100 | 41 | inactive
7 | O=c1c(-c2ccc(O)cc2)coc2cc(O)cc(O)c12 [GENISTEIN] | 31 | 100 | 22 | inactive
8 | COc1ccc2cc1Oc1ccc(cc1)CCc1ccccc1-c1ccc(cc1OC)CC2 | 2.2 | 42 | 12 | inactive
9 | O=S(=O)(c1ccccc1)N(CC(F)(F)F)c1ccc(C(O)(C(F)(F)F)C(F)(F)F)cc1 [T091317] | – | 100 | – | inactive
10 | CC(C)CC[C@@H](O)[C@@H](C)[C@H]1CC[C@H]2[C@@H]3CC=C4C[C@@H](O)CC[C@]4(C)[C@H]3CC[C@]12C [22(R)-HYDROXYCHOLESTEROL] | – | 100 | – | inactive

Compounds with a lower IC50 [2], results first:

Row | IC50 [1] [µM] | IC50 [2] [µM] | IC50 [3] [µM] | Compound | Activity [4]
11 | – | 24.7 | – | CCCCCCc1ccccc1N1C(=O)c2ccccc2C1=O | inactive
12 | 3.2 | 19 | 7.3 | Oc1cc2ccc1-c1ccccc1CCc1ccc(cc1)Oc1cccc(c1)CC2 | inactive
13 | 7.1 | 18 | 77 | c1cc2cc(c1)Oc1ccc(cc1)CCc1ccccc1-c1ccc(cc1)CC2 [DEOXYRICCARDIN C] | inactive
14 | – | 16.2 | – | O=C1c2ccccc2C(=O)N1c1ccccc1CCc1ccccc1 | inactive
15 | 5.7 | 15 | 14 | Oc1ccc2cc1Oc1ccc(cc1)CCc1ccccc1-c1ccc(cc1)CC2 | inactive
16 | 4.9 | 9.9 | 6.6 | Oc1ccc2c(c1)CCc1ccc(cc1)Oc1cc(ccc1O)CCc1ccc-2c(O)c1 [RICCARDI C] | inactive
17 | 6.6 | 8.6 | 13 | Oc1ccc2cc1Oc1ccc(cc1)CCc1ccccc1-c1ccc(cc1O)CC2 | inactive
18 | 3.1 | 8 | 18 | CC(C)c1cccc(C(C)C)c1N1C(=O)c2ccccc2C1=S | inactive
19 | 8.4 | 5.1 | 10 | Oc1ccc2c(c1)CCc1ccc(cc1)Oc1cccc(c1)CCc1ccc-2c(O)c1 | inactive
20 | 4.4 | 4.9 | 7.6 | Oc1ccc2c(c1)CCc1ccc(cc1)Oc1cc(ccc1O)CCc1ccc-2cc1 | inactive
21 | – | 4.8 | – | O=C(O)Cc1cccc(OCCCN(Cc2cccc(C(F)(F)F)c2Cl)CC(c2ccccc2)c2ccccc2)c1 | inactive
